For experiment [1], the target named is Human immunodeficiency virus type 1 reverse transcriptase (Human immunodeficiency virus 1, UniProt Q72547, K103N). In words: Compound was tested for inhibitory activity against HIV-1 mutant type reverse transcriptase (K103N).
The target of experiment [2] is T1, Human immunodeficiency virus type 1 reverse transcriptase (Human immunodeficiency virus 1, UniProt Q72547). In words: Compound was tested for inhibitory activity against HIV-1 wild type reverse transcriptase.
The target of experiment [3] is Human immunodeficiency virus type 1 reverse transcriptase (Human immunodeficiency virus 1, UniProt Q72547, P236L). Put plainly: Compound was tested for inhibitory activity against HIV-1 mutant type reverse transcriptase (P236L).
Experiment [4] concerns the target T1, Human immunodeficiency virus type 1 reverse transcriptase. Put plainly: Compound was tested for inhibitory activity against HIV-1 mutant type reverse transcriptase ([…]).
Experiment [5] addresses Human immunodeficiency virus type 1 reverse transcriptase (Human immunodeficiency virus 1, UniProt Q72547, Y181C). Put plainly: Compound was tested for inhibitory activity against HIV-1 mutant type reverse transcriptase (Y181C).

This note sets out measurements from ChEMBL document CHEMBL1130928 (Bioorg Med Chem Lett, 1998).

SMILES strings stand for the structures.

One may read the IC50 as the concentration needed to halve the response being measured. Lower therefore signals greater potency. `CCN1c2ncccc2C=Cc2cccnc21`: the IC50 came out at 1500 nM in experiment [1]; 40 nM in experiment [2]; 10 nM in experiment [3]; 230 nM in experiment [4]; 2500 nM in experiment [5].

For `C1=Cc2cccnc2N(C2CC2)c2ncccc21`, the IC50 in experiment [1] is 630 nM; in experiment [2] it was 20 nM; in experiment [3] it was 10 nM; in experiment [4], 150 nM; in experiment [5], 960 nM.
